For series [1], the target named is T1, human 5-HT2C-INI receptor (Homo sapiens, UniProt P28335).
T1 sequence (P28335 33-458): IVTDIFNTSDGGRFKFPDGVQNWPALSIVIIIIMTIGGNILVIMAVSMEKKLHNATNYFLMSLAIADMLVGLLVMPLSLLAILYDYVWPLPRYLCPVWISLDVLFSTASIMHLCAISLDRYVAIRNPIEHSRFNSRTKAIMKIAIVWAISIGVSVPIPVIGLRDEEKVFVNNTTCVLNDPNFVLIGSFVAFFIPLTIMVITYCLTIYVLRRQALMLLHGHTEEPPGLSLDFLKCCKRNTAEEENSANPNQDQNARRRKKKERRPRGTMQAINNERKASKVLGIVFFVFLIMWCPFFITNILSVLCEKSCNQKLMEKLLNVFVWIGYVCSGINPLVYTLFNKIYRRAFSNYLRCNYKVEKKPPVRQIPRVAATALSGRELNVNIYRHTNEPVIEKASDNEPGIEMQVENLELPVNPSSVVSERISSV
Briefly: Tango β-arrestin-2 recruitment assay. It counts as cell-based. To be noted: for β-arrestin recruitment activity: 5-HT2C.

Series [2] addresses T2, 5-HT2C (Homo sapiens, UniProt P28335).
T2 sequence (P28335 33-458): T1 sequence (P28335 33-458)
In words: Binding affinity.

Series [3] has as its system serotonin receptors, dopamine receptors, monoamine transporters, and other selected CNS targets. In words: Off-target binding panel. To be noted: panel of CNS targets.
Series [4] has as its system C57BL/6J mice. In words: Baseline. It is filed as in vivo, mouse. To be noted: 0–15 min, male C57BL/6J mice.
The test system of series [5] is C57BL/6J mice. Briefly: Amphetamine. It counts as in vivo, mouse. To be noted: AMPH 3 mg/kg, 90 min.
Series [6] concerns C57BL/6J mice. In words: Phencyclidine. It counts as in vivo, mouse. To be noted: PCP 5 mg/kg, 60 min.
In a further series the target is CYP2D6 (Homo sapiens, UniProt P10635). Briefly: in vitro. To be noted: human liver microsomes, probe dextromethorphan.
The next series addresses CYP3A4 (Homo sapiens, UniProt P08684). Briefly: in vitro. To be noted: human liver microsomes, probe midazolam.
For series [7] the following is noted: cited from earlier work.
The target of series [8] is T2, 5-HT2C. To be noted: cited from earlier work.
Series [9] deals with T3, 5-HT2B (Homo sapiens, UniProt P41595). To be noted: cited from earlier work.
Series [10] has as its target T1, human 5-HT2C-INI receptor. Briefly: Calcium flux assay. It is filed as cell-based. To be noted: for 5-HT2C EC50: Table 1, FLIPR calcium flux, calculated from averaged pEC50; for Emax: read-out: 5-HT2C Emax, Table 1, normalized to % 5-HT, mean ± SEM (n = 3), NA = no activity up to 10 μM.
Series [11] has as its target T3, 5-HT2B. In words: Calcium flux assay. It is filed as cell-based.
Series [12] concerns the target T4, 5-HT2A (Homo sapiens, UniProt P28223). To be noted: cited from earlier work.
Series [13] addresses T4, 5-HT2A. Briefly: Calcium flux assay. It is filed as cell-based. To be noted: read-out: 5-HT2A Emax.

Structures can show the parent of a compound that is named as a salt.

T3 sequence (P41595 whole entry): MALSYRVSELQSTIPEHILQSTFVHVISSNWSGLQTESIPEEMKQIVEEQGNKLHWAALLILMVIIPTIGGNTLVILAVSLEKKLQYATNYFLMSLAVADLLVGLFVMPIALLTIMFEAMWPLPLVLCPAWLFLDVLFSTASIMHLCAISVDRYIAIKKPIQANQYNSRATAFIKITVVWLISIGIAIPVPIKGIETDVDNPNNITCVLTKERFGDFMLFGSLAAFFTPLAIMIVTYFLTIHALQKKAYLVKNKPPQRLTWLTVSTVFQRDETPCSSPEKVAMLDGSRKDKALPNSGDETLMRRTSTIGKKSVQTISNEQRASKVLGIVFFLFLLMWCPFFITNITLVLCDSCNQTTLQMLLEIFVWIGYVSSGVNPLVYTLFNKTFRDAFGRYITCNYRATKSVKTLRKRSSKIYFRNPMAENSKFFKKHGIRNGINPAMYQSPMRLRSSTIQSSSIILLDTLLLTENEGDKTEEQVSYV
T4 sequence (P28223 whole entry): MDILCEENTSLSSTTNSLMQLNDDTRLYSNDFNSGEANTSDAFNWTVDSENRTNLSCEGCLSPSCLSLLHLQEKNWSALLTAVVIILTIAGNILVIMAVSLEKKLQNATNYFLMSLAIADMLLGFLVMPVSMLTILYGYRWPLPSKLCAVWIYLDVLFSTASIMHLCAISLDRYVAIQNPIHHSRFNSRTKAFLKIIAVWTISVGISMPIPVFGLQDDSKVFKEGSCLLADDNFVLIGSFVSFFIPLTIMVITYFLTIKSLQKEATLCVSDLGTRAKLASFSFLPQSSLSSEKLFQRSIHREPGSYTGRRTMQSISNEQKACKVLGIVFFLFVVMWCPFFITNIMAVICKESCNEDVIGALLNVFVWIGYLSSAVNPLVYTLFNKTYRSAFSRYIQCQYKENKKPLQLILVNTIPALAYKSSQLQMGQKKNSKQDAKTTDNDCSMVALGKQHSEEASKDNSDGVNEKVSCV
Chain of CYP3A4 (P08684 whole entry): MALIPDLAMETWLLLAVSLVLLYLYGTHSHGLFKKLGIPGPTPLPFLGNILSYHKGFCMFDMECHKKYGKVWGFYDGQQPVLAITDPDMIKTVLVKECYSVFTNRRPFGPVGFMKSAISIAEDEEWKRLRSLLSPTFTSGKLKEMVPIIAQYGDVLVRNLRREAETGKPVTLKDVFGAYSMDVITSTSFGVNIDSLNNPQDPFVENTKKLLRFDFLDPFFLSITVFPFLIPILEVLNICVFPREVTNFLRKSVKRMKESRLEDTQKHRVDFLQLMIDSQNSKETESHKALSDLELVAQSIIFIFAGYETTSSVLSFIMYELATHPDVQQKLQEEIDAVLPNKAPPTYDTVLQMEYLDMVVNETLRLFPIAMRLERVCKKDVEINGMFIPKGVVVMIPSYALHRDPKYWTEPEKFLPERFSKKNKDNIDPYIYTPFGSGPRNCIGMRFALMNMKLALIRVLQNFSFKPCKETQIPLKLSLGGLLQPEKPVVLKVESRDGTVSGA
Chain of CYP2D6 (P10635 whole entry): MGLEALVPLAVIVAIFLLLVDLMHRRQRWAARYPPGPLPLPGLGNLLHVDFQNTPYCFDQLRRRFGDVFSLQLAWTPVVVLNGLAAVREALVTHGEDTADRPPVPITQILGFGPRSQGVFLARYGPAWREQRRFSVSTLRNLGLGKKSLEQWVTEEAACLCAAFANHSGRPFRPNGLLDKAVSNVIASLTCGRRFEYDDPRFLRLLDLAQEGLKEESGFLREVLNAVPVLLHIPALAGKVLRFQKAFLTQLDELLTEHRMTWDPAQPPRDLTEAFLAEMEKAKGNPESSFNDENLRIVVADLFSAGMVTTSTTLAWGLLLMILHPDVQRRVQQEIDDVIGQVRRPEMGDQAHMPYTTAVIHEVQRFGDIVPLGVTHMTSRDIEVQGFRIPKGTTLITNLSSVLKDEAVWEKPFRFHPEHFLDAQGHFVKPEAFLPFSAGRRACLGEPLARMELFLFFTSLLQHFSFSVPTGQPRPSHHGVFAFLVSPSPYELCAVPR

On to `CNC[C@H]1C[C@@H]1c1cc(F)ccc1OC.Cl` [(+)-15a, (+)-1-[(1S,2S)-2-(5-Fluoro-2-methoxyphenyl)cyclopropyl]-N-methylmethanamine Hydrochloride], for which the “β-arrestin recruitment activity” value in series [1] is “no β-arrestin recruitment activity”. For the same molecule, the Ki on 5-HT2C [2] is 81 nM.

In the case of `COc1ccccc1CNC[C@H]1C[C@@H]1c1cc(F)ccc1OC.Cl` [(+)-19, (+)-1-[(1S,2S)-2-(5-Fluoro-2-methoxyphenyl)cyclopropyl]-N-(2-methoxybenzyl)methanamine Hydrochloride], the “off-target affinity” value in series [3] is “None of the other screened targets were found to display any significant off-target affinity”. For the same molecule, the baseline locomotion result with C57BL/6J mice [4] (10 mg/kg IP) and with C57BL/6J mice [4] (20 mg/kg IP) was “had no effect” each time. Further, the “effect on amphetamine-induced hyperactivity” value was “no significant effect” with C57BL/6J mice [5] (10 mg/kg IP) and “decreased the hyperlocomotion” in the series on C57BL/6J mice [5] (20 mg/kg IP). Besides, the “effect on PCP-induced hyperactivity” value in the series on C57BL/6J mice [6] (10 mg/kg IP) is given as “increased locomotion”; in the series with C57BL/6J mice [6] (20 mg/kg IP), “had no effect on PCP-induced hyperlocomotion”. For the same molecule, the inhibition at 10 µM at CYP2D6 and at CYP3A4 was greater than 50% throughout.

Regarding `C[C@H]1CNCCc2ccc(Cl)cc21` [lorcaserin, reference compound], in series [1] (read-out: β-arrestin-2 Emax), the Emax was 97 ± 2.1%. For the same molecule, the baseline locomotion entry with C57BL/6J mice [4] (3 mg/kg IP) was “decreased baseline locomotion”. Besides, in the series with C57BL/6J mice [5] (3 mg/kg IP), the “effect on amphetamine-induced hyperactivity” value was “reduced amphetamine-induced hyperactivity”. Further, the “effect on PCP-induced hyperactivity” value with C57BL/6J mice [6] (3 mg/kg IP) is listed as “no overall reduction in activity that was statistically significant”.

As to `COc1cc(CC(C)N)c(OC)cc1I` (stereo not shown) [DOI], in [7], the “effect on the locomotor effects of PCP” value is given as “potentiate the locomotor effects of PCP”.

With `CNc1nc(Cc2ccccc2)cc2c1CCNCC2` [PF-04781340], the “5-HT2C Emax” value at 5-HT2C [8] is 99%. Besides, on 5-HT2C [8] (read-out: 5-HT2C EC50), the EC50 was 9 nM. At 5-HT2B [9], the “selectivity over 5-HT2B” value is given as “about 160 fold”.

Take `COc1ccc(F)cc1C1CC1CNCC1CC1.Cl` (racemic) [(±)-17, 1-Cyclopropyl-N-[[2-(5-fluoro-2-methoxyphenyl)cyclopropyl]methyl]methanamine Hydrochloride]: in series [10], the EC50 is greater than 300 nM and the “5-HT2C EC50” value is reported as “lack of activity”.

Take `COc1ccccc1CN(C)CC1CC1c1cc(F)ccc1OC.Cl` (racemic) [(±)-28, 1-[2-(5-Fluoro-2-methoxyphenyl)cyclopropyl]-N-(2-methoxybenzyl)-N-methylmethanamine Hydrochloride]: the “reduction of 5-HT2C potency compared to the parent compound (+)-19” value in [10] (racemate vs (+)-19) is listed as 15 fold.

For the molecule `COc1ccc(F)cc1C1CC1CNCc1ccccc1C#N` (racemic) [(±)-24, 2-[[[[2-(5-Fluoro-2-methoxyphenyl)cyclopropyl]methyl]amino]methyl]benzonitrile Hydrochloride], the Emax in series [10] was less than 35%.

For `COc1ccc(F)cc1C1CC1CNCc1ccccc1C(N)=O` (racemic) [(±)-25, 2-[[[[2-(5-Fluoro-2-methoxyphenyl)cyclopropyl]methyl]amino]methyl]benzamide Hydrochloride], the Emax in series [10] is less than 35%.

Take `COc1ccc(F)cc1[C@H]1C[C@@H]1CNCc1cccs1.Cl` [(+)-32, (+)-1-[(1S,2S)-2-(5-Fluoro-2-methoxyphenyl)cyclopropyl]-N-(thiophen-2-ylmethyl)methanamine Hydrochloride]: at 5-HT2B [11], the “selectivity for 5-HT2C over 5-HT2B” value is given as “full selectivity”. Further, in [1], the “β-arrestin recruitment activity” value is given as “no β-arrestin recruitment activity”.

In the case of `COc1ccc(F)cc1C1CC1CNCc1cccc2cc[nH]c12.Cl` (racemic) [(±)-38, 1-[2-(5-Fluoro-2-methoxyphenyl)cyclopropyl)-N-[(1H-indol-7-yl)methyl]methanamine Hydrochloride], the “5-HT2C EC50” value in series [10] was “entirely inactive”.

Turning to `CNc1nc(Cc2ccccc2)nc2c1CCNC[C@@H]2C` [PF-4479745], the “agonism at 5-HT2B” value on 5-HT2B [9] is given as “no measurable agonism”. For the same molecule, at 5-HT2A [12], the “agonism at 5-HT2A” value is on record as “no measurable agonism”.

For the molecule `COc1ccc(F)cc1C1CC1CNCc1ccccc1O.Cl` (racemic) [(±)-22, 2-[[[[2-(5-Fluoro-2-methoxyphenyl)cyclopropyl]methyl]amino]methyl]phenol Hydrochloride], the “selectivity for 5-HT2C over 5-HT2B” value at 5-HT2B [11] was “full selectivity”.

`COc1ccc(F)cc1[C@@H]1C[C@H]1CNCc1ccccc1Cl` [(−)-27, (–)-N-(2-Chlorobenzyl)-1-[(1R,2R)-2-(5-fluoro-2-methoxyphenyl)cyclopropyl]methanamine Hydrochloride]: the Emax on 5-HT2A [13] was 84 ± 3.9%.

The values above are taken from article PMC7374938 (Journal of medicinal chemistry, 2017).
